Measurements taken from ChEMBL document CHEMBL5614388, “FLT3-PROTACs for combating AML resistance: Analytical overview on chimeric agents developed, challenges, and future perspectives” (Eur J Med Chem, 2024).
One block for each compound: values may come before it.

Columns and labels:
MOLM-13 = assay: Antiproliferative activity against human MOLM-13 cells assessed as reduction in cell viability incubated for 48 hrs by MTS assay; format: functional, cell-based; conditions: MOLM-13, 48 h
MV4-11 [1] = assay: Antiproliferative activity against human MV4-11 cells assessed as reduction in cell viability incubated for 48 hrs by MTS assay; format: functional, cell-based; conditions: MV4-11, 48 h
BaF3 [2] = assay: Antiproliferative activity against mouse BaF3 cells expressing FLT3-ITD D835Y mutant incubated for 48 hrs by CCK8 assay; format: functional, cell-based; conditions: BaF3, 48 h
BaF3 [3] = assay: Antiproliferative activity against mouse BaF3 cells expressing FLT3-ITD F691L mutant incubated for 48 hrs by CCK8 assay; format: functional, cell-based; conditions: BaF3, 48 h
BaF3 [4] = assay: Antiproliferative activity against mouse BaF3 cells expressing FLT3-ITD mutant incubated for 48 hrs by CCK8 assay; format: functional, cell-based; conditions: BaF3, 48 h
MV4-11 [5] = assay: Antiproliferative activity against human MV4-11 cells assessed as reduction in cell viability measured after 48 hrs by CellTiter-Glo assay; format: functional, cell-based; conditions: MV4-11, 48 h
MV4-11 [6] = assay: Antiproliferative activity against human MV4-11 cells assessed as reduction in cell growth; format: functional, cell-based
MV4-11 [7] = assay: Antiproliferative activity against human MV4-11 cells assessed as reduction in cell growth incubated for 48 hrs by CCK-8 assay; format: functional, cell-based; conditions: MV4-11, 48 h
Kasumi 1 = assay: cells; conditions: Homo sapiens, Kasumi 1, 72 h
Description: Antiproliferative activity against human Kasumi 1 cells assessed as reduction in cell viability incubated for 72 hrs by Cell-titer glo luminescent assay

MV4-11 [8] = assay: cells; conditions: Homo sapiens
Description: Antiproliferative activity against human MV4-11 cells assessed as reduction in cell viability by WAT-8 reagent based analysis

- IC50 (MOLM-13): 0.83 nM
- IC50 (MV4-11 [1]): 1.1 nM
- IC50 (BaF3 [2]): 11.1 nM
- IC50 (BaF3 [3]): 14.5 nM
- IC50 (BaF3 [4]): 1.8 nM
SMILES: CCCNc1nc(Nc2ccc(C#N)cc2)ncc1C#CCCCNC(=O)[C@H](C)N(C)C(=O)/C=C/CN(C)C [FF-10101]

- IC50 (MV4-11 [5]): 4.83 nM
SMILES: CC(C)(C)c1cc(NC(=O)Nc2ccc(-c3cn(CCCCc4cn(CCCCC(=O)Nc5cccc6c5CN(C5CCC(=O)NC5=O)C6=O)nn4)c4ncnc(N)c34)cc2)no1 (stereo not given)

- IC50 (MV4-11 [6]): 92 nM
SMILES: O=C(CCCCCCC(=O)Nc1cc(-c2ccc3ncn(Cc4c(Cl)cccc4Cl)c3c2)[nH]n1)NO

- IC50 (MV4-11 [7]): 1.66 nM
SMILES: CCc1nc(C(N)=O)c(Nc2ccc(N3CCN(CN4CCN(c5ccc6c(c5)C(=O)N(C5CCC(=O)NC5=O)C6=O)CC4)CC3)c(OC)c2)nc1NC1CCOCC1 (stereo not given)

- EC50 (Kasumi 1): 21.3 nM
SMILES: Cc1[nH]c(/C=C2\C(=O)Nc3ccc(F)cc32)c(C)c1C(=O)NCCCCCCNc1cccc2c1C(=O)N(C1CCC(=O)NC1=O)C2=O (stereo not given)

- IC50 (MV4-11 [8]): 0.9 nM
SMILES: CCc1nc(C(N)=O)c(Nc2ccc(N3CCC(N4CCN(C)CC4)CC3)c(OC)c2)nc1NC1CCOCC1 [GILTERITINIB]
